Data taken from patent publication US6881719B2, “β-turn peptidomimetic cyclic compounds” (McGill University, priority 2000, dated 2005).
Values joined by “and” are separate entries in the source; they are usually repeats but may differ in a detail not shown here. Identical values can stand only once. No end group written: not given here.

Tests used:
[1] = target: T1, NIH3T3 fibroblasts expressing TrkC (Homo sapiens, UniProt Q16288); assay: Cell survival (MTT), NIH-TrkC; type: cell-based; conditions: 72 hours
T1 construct: expressed in transfected cells; host or cells: NIH3T3 fibroblasts
Source text: (§1) The 4-3.6 cells are B104 cells stably transfected with human trkA cDNA, and express equal levels of p75 and TrkA (TrkA+ p75+). For screening agents that activate or antagonize TrkC receptors, NIH3T3 fibroblasts were stably transfected with human TrkC cDNA. These cells respond to the ligand NT-3. For screening agents that activate or antagonize TrkA receptors, NIH3T3 fibroblasts were stably transfected with human TrkA cDNA. These cells respond to the ligand NGF.
(§2) Cell lines: 5,000 cells/well in protein-free media (PFHM-II, GIBCO, Toronto) containing 0.2% bovine serum albumin (BSA) (Crystalline fraction V, Sigma, St. Louis, Mo.) were seeded in 96 well plates (Falcon, Mississauga, Ontario). The cultures were untreated, or treated with the indicated test or control ligands. Cell viability was quantitated using the MTT assay after 56-72 hours of culture. […] The OD of untreated cells were subtracted. The higher optical density of untreated primary cultures is likely due to cellular heterogeneity and to endogenous production of limiting amounts of growth factors.

[2] = test system: wild type NIH3T3 fibroblasts; assay: Cell survival (MTT), NIH wt; type: cell-based; conditions: 72 hours
Source text: as §1, §2

[3] = target: T2, NIH3T3 fibroblasts expressing TrkA (Homo sapiens, UniProt P04629); assay: Cell survival (MTT), NIH-TrkA; type: cell-based; conditions: 72 hours;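 also: 100% equals survival with optimal NGF at 1 nM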
T2 construct: expressed in transfected cells; host or cells: NIH3T3 fibroblasts
Source text: The 4-3.6 cells are B104 cells stably transfected with human trkA cDNA, and express equal levels of p75 and TrkA (TrkA+ p75+). For screening agents that activate or antagonize TrkC receptors, NIH3T3 fibroblasts were stably transfected with human TrkC cDNA. […] For screening agents that activate or antagonize TrkA receptors, NIH3T3 fibroblasts were stably transfected with human TrkA cDNA.
(§3) Cell lines: 5,000 cells/well in protein-free media (PFHM-II, GIBCO, Toronto) containing 0.2% bovine serum albumin (BSA) (Crystalline fraction V, Sigma, St. Louis, Mo.) were seeded in 96 well plates (Falcon, Mississauga, Ontario). The cultures were untreated, or treated with the indicated test or control ligands. Cell viability was quantitated using the MTT assay after 56-72 hours of culture. […] The OD of untreated cells were subtracted.

[4] = target: human TrkA expressed on transfected cells (4-3.6 cells; NIH3T3-TrkA cells) (human) (UniProt P04629); assay: FACScan, 4-3.6 cells (p75+ TrkA+), avidin-FITC
[5] = target: human TrkC expressed on transfected NIH3T3 fibroblasts (human) (UniProt Q16288); assay: cell-based or functional assay
[6] = target: TrkA on primary rat embryonic neurons (DRG and septal cultures) (rat) (UniProt P35739); assay: cell-based or functional assay
septal neuronal cultures = assay: ChAT activity in septal neuronal cultures; type: cell-based, rat; conditions: compound 20 μM alone; day 8
Experimental: Cell cultures were established from the septal area of 17-day-old rat embryos. In brief, tissue was incubated in PBS containing trypsin and DNase. Tissue pieces then were mechanically dissociated. After centrifugation, the pellet was suspended in Leibovitz's L-15 medium. Cells were plated onto 96-multiwell NUNC dishes (10^5 cells/well) coated with poly-D-lysine (5 μg/ml). Pure cultures of septal neurons were treated 1 day after plating. Drugs, prepared in medium, were added directly to the cells without changing the initial medium. The incubation continued for 8 days, at which time ChAT activity was evaluated.
At day 8 of culture, the medium was aspirated, and ice-cold lysis buffer (10 mM sodium phosphate, pH 7.4/0.1% TritonX-100—Trade-mark) was added. ChAT activity assays were performed directly in the wells using Fonnum's method (Fonnum, 1975).

TrkA-ECD = target: T3, TrkA-ECD (Homo sapiens, UniProt P04629); assay: ELISA competition of mAb 5C3 binding to immobilized TrkA-ECD; conditions: mAb 5C3 2 nM; competitor 40 μM
T3 construct: pure soluble TrkA extracellular domain (TrkA-ECD) produced in baculovirus; made in house
Experimental: Direct binding studies: were done as described (Saragovi et al., 1998) using 6 ng/well of recombinant baculovirus TrkA-extracellular domain protein (TrkA-ECD) or control bovine serum albumin (BSA, Fraction V, Boehringer Mannheim) immobilized onto 96-well microtest plates. Wells were blocked with binding buffer (BB: PBS with 1% BSA) for 1 hour. Then, 50 ng/well of biotinylated D3 were added as primary reagent in BB for 40 min in the absence or presence of excess non-biotinylated D3 as competitor. Wells were washed 5 times with BB, and horseradish peroxidase (HRP)-coupled avidin (Sigma) was added as secondary reagent for 30 min. Plates were washed in BB, and peroxidase activity was determined colorimetrically using 2,2-azinobis (3-ethylbenzthiazoline sulfonic acid) (ABTS, Sigma). The optical density (OD) was measured at 414 nm in a Microplate reader (Bio-Rad). Assays were repeated at least three times, n=4.
Binding Competition: studies were as described for direct binding assays to TrkA-ECD, except that as primary reagent 50 ng anti-TrkA mAb 5C3/well were added in BB, in the presence or absence of D3 or controls as competitors as described (Saragovi et al., 1998). Wells were washed 5 times with BB, and HRP-coupled goat anti-mouse was added as secondary reagent for 30 min. Plates were washed in BB, and peroxidase activity were determined. Assays were repeated at least three times, n=4.

4-3.6 cells (p75+TrkA+) = assay: Cell survival (MTT), 4-3.6 cells; type: cell-based, rat; conditions: 72 hours;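 as to % Protection: 100% equals survival with optimal NGF at 1 nM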
Source text: as §1, §2

p75 NGF receptor subunit = target: T4, p75 NGF receptor subunit (Rattus norvegicus, UniProt P07174); assay: FACScan competition of anti-p75 mAb MC192 binding on 4-3.6 cells
T4 construct: B104 rat neuroblastomas express p75 receptors; endogenous in cells
Source text: as §1
(§4) FACScan binding assays: 4-3.6 cells (2×10^5) in FACScan binding buffer (PBS, 0.5% BSA, and 0.1% NaN3) were immunostained as described (Saragovi et al., 1998). Saturating anti-TrkA mAb 5C3, or anti-p75 mAb MC192, or control non-binding IgGs were added to cells for 1 hour at 4° C., in the presence or absence of D3 as competitor. Excess primary antibody was washed off, and cells were immunostained with fluorescinated goat-anti-mouse IgG secondary antibody. Cells were acquired on a FACScan and mean channel fluorescence of bell-shaped histograms were analyzed using the LYSIS II program.

[7] = target: T5, HEK 293 cells expressing TrkB/TrkA IgG-C2 chimeric receptor (Homo sapiens, UniProt P04629+Q16620); assay: Cell survival (MTT), HEK 293-TrkB/TrkA IgG-C2 chimera; type: cell-based; conditions: HEK 293-TrkB/TrkA chimera, 72 hours;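 as to % Protection: 100% equals survival with optimal NGF at 1 nM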
T5 construct: The IgG-C2 domain of human TrkA was generated using unique restriction sites; expressed in transfected cells
Source text: The IgG-C2 domain of human TrkA was generated using unique restriction sites in the primers to allow exchange with the corresponding rat TrkB domain. The chimeric receptors were constructed by subcloning the human TrkA IgG-C2 domain into the corresponding restriction sites of the rat trkB cDNA reported in a previous work (Perez et al., 1995). Chimeric constructs were confirmed by sequencing, and were cloned into the pCDNA3 expression vector that contains a selection gene providing resistance to neomycin (G418, GIBCO). HEK293 cells were transfected using the lipofectamine plus method (GIBCO), selected with neomycin (0.5 mg/ml) and at least 3 independent subclones were obtained by limiting dilution techniques (293-TrkB/A-IgC2 chimera).
as §3

cell surface TrkA = target: T6, cell surface TrkA (Homo sapiens, UniProt P04629); assay: FACScan competition of mAb 5C3 binding on 4-3.6 cells; conditions: mAb 1 nM; competitor 40 μM
T6 construct: expressed in transfected cells
Source text: as §1, §4

[8] = test system: embryonic rat DRG primary neuronal cultures; assay: Cell survival (MTT), primary DRG cultures; type: cell-based; conditions: compound 10 μM alone; 8 days;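 as to % Protection: 100% equals survival with optimal NGF at 1 nM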
Experimental: Fetal rat DRG primary cultures were established from Sprague Dawley day 17 rat embryos. All ganglia were dissected and dissociated first enzymatically with trypsin and then mechanically. Dissociated cells were cultured (10^5 cells/well) in 96 well plates pre-coated with collagen, and grown for a total of 8 days in Neuro Basal Medium containing N2 supplement (GIBCO, Toronto), antibiotics, and L-glutamine. These DRG cultures are ˜85% TrkA-expressing and are heavily dependent on TrkA signals for survival.
Primary DRG cultures: After a total of 8 days of culture with the indicated test or control ligands, cell survival were studied using the 3(4,5-Dimethylthiazolyl-2)-2,5-diphenyl tetrazolium bromide colorimetric (MTT) assay, and by microscopic observation.
as §2

[9] = target: TrkA on primary rat embryonic neurons (DRG and septal cultures) (rat, UniProt P35739 33-799); assay: cell-based or functional assay
Chain of TrkA on primary rat embryonic neurons (DRG and septal cultures) (P35739 33-799): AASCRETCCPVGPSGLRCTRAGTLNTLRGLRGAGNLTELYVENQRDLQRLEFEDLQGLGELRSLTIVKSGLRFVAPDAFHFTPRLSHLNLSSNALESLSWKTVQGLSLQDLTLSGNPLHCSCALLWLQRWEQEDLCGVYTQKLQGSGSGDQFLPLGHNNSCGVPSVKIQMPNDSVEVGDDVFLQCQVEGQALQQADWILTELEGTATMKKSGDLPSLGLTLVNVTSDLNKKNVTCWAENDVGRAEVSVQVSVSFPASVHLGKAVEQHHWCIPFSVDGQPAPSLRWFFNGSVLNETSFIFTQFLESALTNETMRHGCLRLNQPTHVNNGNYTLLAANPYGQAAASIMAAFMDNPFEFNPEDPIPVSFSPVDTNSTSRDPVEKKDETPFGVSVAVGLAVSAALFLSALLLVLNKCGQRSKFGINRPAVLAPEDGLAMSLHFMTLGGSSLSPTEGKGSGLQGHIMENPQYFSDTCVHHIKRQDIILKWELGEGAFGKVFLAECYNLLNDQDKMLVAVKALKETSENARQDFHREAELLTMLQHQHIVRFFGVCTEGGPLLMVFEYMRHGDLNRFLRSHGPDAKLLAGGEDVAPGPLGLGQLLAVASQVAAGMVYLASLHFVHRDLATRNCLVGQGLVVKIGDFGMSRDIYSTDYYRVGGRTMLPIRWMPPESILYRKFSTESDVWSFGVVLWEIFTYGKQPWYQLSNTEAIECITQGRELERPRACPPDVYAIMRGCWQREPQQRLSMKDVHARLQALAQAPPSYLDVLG

T1 sequence (Q16288 32-839): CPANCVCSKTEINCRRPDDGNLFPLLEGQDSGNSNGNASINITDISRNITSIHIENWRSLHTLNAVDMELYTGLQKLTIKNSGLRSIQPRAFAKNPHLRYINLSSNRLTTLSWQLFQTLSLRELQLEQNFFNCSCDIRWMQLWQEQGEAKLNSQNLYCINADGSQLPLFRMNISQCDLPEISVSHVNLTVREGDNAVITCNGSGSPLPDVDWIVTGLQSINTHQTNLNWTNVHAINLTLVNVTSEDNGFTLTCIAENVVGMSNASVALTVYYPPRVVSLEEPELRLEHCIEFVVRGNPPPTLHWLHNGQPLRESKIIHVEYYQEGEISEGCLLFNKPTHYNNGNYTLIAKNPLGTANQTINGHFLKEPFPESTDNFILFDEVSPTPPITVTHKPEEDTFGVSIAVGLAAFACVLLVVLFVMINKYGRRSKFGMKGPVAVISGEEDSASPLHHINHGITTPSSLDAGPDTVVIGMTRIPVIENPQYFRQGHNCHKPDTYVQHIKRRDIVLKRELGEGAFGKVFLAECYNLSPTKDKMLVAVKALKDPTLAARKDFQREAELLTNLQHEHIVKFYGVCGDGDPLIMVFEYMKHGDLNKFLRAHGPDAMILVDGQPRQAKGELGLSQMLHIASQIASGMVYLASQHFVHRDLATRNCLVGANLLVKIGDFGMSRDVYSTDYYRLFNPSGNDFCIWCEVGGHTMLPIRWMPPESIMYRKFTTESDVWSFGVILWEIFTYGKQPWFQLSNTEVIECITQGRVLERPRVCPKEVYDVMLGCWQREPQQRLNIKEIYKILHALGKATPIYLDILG
T2 sequence (P04629 33-796): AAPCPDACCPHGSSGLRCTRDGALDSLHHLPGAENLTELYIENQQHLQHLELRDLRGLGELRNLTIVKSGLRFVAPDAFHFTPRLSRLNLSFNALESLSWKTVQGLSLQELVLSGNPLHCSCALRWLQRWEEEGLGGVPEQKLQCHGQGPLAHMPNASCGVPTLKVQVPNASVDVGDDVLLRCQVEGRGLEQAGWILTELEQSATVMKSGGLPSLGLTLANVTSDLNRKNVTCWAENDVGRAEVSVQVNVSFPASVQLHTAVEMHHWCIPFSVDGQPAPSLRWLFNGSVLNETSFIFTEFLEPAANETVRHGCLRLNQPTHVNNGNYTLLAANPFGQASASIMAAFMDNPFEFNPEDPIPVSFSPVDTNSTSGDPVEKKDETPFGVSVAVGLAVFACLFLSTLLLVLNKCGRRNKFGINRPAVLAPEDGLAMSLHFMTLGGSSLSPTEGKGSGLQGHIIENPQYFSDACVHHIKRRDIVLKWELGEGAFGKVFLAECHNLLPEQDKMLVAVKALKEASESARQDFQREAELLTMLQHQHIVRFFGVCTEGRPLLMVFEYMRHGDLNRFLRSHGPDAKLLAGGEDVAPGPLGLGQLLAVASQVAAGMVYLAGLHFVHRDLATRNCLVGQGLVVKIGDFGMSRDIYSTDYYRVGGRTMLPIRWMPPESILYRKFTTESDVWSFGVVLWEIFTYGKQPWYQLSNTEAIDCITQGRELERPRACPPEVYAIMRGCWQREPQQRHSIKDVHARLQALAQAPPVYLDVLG
Chain of nerve growth factor (NGF) (ligand) (P01138 122-241): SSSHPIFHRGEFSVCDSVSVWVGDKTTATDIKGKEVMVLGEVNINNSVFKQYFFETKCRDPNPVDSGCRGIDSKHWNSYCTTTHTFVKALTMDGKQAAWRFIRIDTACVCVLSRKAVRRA
Chain of TrkA on primary rat embryonic neurons (DRG and septal cultures) (rat) (P35739 33-799): as the sequence (P35739 33-799) above
T5 sequence (P04629 299-365 limits assumed, change not shown, one chain of several): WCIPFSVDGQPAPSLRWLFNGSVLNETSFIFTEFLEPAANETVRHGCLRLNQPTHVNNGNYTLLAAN
Chain of human TrkC expressed on transfected NIH3T3 fibroblasts (human) (Q16288 32-839): as the sequence (Q16288 32-839) above
T3 sequence (P04629 33-423 limits assumed): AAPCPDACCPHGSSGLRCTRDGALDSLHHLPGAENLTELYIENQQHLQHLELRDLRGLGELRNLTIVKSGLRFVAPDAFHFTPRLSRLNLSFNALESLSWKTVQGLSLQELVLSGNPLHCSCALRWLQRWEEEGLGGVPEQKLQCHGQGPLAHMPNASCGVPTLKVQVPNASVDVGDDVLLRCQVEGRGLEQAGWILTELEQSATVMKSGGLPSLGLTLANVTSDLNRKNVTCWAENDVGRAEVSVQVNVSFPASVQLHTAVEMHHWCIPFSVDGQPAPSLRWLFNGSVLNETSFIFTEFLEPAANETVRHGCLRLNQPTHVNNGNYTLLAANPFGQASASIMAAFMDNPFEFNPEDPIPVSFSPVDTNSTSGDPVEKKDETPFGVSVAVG
Chain of human TrkA expressed on transfected cells (4-3.6 cells; NIH3T3-TrkA cells) (human) (P04629 33-796): as the sequence (P04629 33-796) above
T6 sequence (P04629 33-796): as above
T4 sequence (P07174 30-425): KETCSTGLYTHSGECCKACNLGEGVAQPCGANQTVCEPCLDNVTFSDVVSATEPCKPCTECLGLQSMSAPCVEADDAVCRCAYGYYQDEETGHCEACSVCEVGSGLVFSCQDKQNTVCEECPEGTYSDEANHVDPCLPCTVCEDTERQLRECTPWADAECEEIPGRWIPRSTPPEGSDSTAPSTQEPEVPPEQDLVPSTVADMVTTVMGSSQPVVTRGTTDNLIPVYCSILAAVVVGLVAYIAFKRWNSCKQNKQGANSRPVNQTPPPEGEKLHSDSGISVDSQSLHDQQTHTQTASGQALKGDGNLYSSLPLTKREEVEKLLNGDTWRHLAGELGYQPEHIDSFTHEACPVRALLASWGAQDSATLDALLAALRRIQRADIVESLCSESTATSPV

CCC(C)[C@@H]1NC(=O)C(CC(=O)O)NC(=O)c2cc([N+](=O)[O-])cc(I)c2OCCC(C(N)=O)NC1=O (stereo partly shown) [P23]
NIH-TrkC % Protection ([1]; agent 10 μM + 10 pM NGF): 11 ± 5% | NIH-TrkC % Protection ([1]; agent 10 μM + 10 pM NT-3): 51 ± 7% | NIH-TrkC % Protection ([1]; agent 10 μM alone): 8 ± 2% | NIH wt % Protection ([2]; agent 10 μM + 10 pM NGF): 1 ± 3% | NIH wt % Protection ([2]; agent 10 μM + 10 pM NT-3): 1 ± 3% | NIH wt % Protection ([2]; agent 10 μM alone): 0 ± 3% | NIH-TrkA % Protection ([3]; agent 10 μM + 10 pM NGF): 52 ± 3% | NIH-TrkA % Protection ([3]; agent 10 μM + 10 pM NT-3): 21 ± 3% | NIH-TrkA % Protection ([3]; agent 10 μM alone): 15 ± 2%

NC(=O)C[C@@H]1NC(=O)[C@H](CCC(=O)O)NC(=O)c2cc([N+](=O)[O-])cc(I)c2NCCC(C(N)=O)NC1=O (stereo partly shown) [P43]
NIH wt % Protection ([2]; agent 10 μM alone): 2 ± 4% | NIH-TrkA % Protection ([3]; agent 10 μM + 10 pM NGF): 12 ± 3% | NIH-TrkA % Protection ([3]; agent 10 μM + 1 nM NGF): 55% and 55 ± 7% | NIH-TrkA % Protection ([3]; agent 10 μM alone): 4 ± 3%

CC(O)[C@@H]1NC(=O)c2cc([N+](=O)[O-])cc(I)c2NCCC(C(N)=O)NC(=O)CNC1=O (stereo partly shown) [P42]
NIH wt % Protection ([2]; agent 10 μM alone): 0 ± 3% | NIH-TrkA % Protection ([3]; agent 10 μM + 10 pM NGF): 9 ± 4% | NIH-TrkA % Protection ([3]; agent 10 μM + 1 nM NGF): 68% and 68 ± 5% | NIH-TrkA % Protection ([3]; agent 10 μM alone): 5 ± 2%

control-biotin (an inactive biotinylated peptide)
MCF [4]: 10 MCF

CC(O)[C@@H]1NC(=O)[C@H](CCCCN)NC(=O)c2cc([N+](=O)[O-])cc(I)c2OCCC(C(N)=O)NC1=O (stereo partly shown) [P27]
NIH-TrkC % Protection ([1]; agent 10 μM + 10 pM NT-3): 62 ± 6% | NIH-TrkC % Protection ([1]; agent 10 μM alone): 13 ± 3% | NIH wt % Protection ([2]; agent 10 μM + 10 pM NT-3): 5 ± 4% | NIH wt % Protection ([2]; agent 10 μM alone): −2 ± 4% | NIH-TrkA % Protection ([3]; agent 10 μM + 10 pM NT-3): 4 ± 1% | NIH-TrkA % Protection ([3]; agent 10 μM alone): 5 ± 2%

NT-3: Neurotrophin-3, prefers binding to TrkC receptors
NIH-TrkC % Protection ([1]; 10 pM NT-3): 29±1% | NIH-TrkC % Protection ([1]; 1 nM NT-3): 100 ± 2% | NIH wt % Protection ([2]; 10 pM NT-3): 1 ± 4% | NIH wt % Protection ([2]; 1 nM NT-3): −2 ± 5% | NIH-TrkA % Protection ([3]; 10 pM NT-3): 3 ± 2% | NIH-TrkA % Protection ([3]; 1 nM NT-3): 17 ± 3%

nerve growth factor (NGF) (ligand)
% Protection (MTT, NIH-TrkC), 10 pM NGF [5]: 2% | % Protection (MTT, NIH-TrkC), 1 nM NGF [5]: 5% | % Protection (MTT, rat DRG neurons), NGF 20 pM [6]: 9% | % Protection (MTT, rat DRG neurons), NGF 500 pM [6]: 68% | ChAT Activity (rat septal neurons), 10 pM NGF (pmol Ach/min/well) [6]: 0.42 | ChAT Activity (rat septal neurons), 400 pM NGF (pmol Ach/min/well) [6]: 0.72 | Optical Density (MTT survival, rat DRG neurons), NGF 20 pM [6]: 316 OD | Optical Density (MTT survival, rat DRG neurons), NGF 500 pM [6]: 0.535 OD | Optical Density (MTT survival, rat DRG neurons), NGF 1 nM [6]: 823 OD

NCCCC[C@@H]1NC(=O)[C@H](CCC(=O)O)NC(=O)c2cc([N+](=O)[O-])ccc2SCC(C(N)=O)NC1=O (stereo partly shown) [C59, EKCys]
ChAT Activity (septal neuronal cultures): 0.30 ± 0.05 pmol Ach/min/well | Fold Increase (ChAT activity) (septal neuronal cultures): 1 | % Binding of mAb 5C3 to TrkA-ECD (TrkA-ECD): 96 ± 9% | % Protection (4-3.6 cells (p75+TrkA+); compound 10 μM + 10 pM NGF): 41 ± 4% | Optical Density (4-3.6 cells (p75+TrkA+); compound 10 μM + 10 pM NGF): 209 ± 17 | % Protection (4-3.6 cells (p75+TrkA+); compound 10 μM alone): 2 ± 1% | Optical Density (4-3.6 cells (p75+TrkA+); compound 10 μM alone): 76 ± 4 | inhibition of mAb MC192 binding (p75 NGF receptor subunit): did not inhibit | % Protection ([7]; compound 10 μM + 10 pM NGF): 21 ± 6% | Optical Density ([7]; compound 10 μM + 10 pM NGF): 90 ± 9 | % Protection ([7]; compound 10 μM alone): −1 ± 2% | Optical Density ([7]; compound 10 μM alone): 30 ± 7 | % Maximal binding of mAb 5C3 (cell surface TrkA): 97 ± 6% | % Protection [8]: 0 ± 1% | Optical Density [8]: 271 ± 8

Glu-Lys-Cys (also: further groups not given here) [C59 (EKCys), inactive analog of D3]
ChAT Fold Increase, 20 µM C59 control [9]: 1 fold
